# Assays:
# Assay in all cases: relative viability (nuclei count vs DMSO), 5 days (fraction); higher = more cells survive
# EKVX = tested on: EKVX
# Outline: (§1)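 One day after seeding in 1536-well plates, lung cancer cell lines were dosed by pin tool. Dosing was either single-drug or a fixed anchor-drug dose plus five library-drug doses (not always all listed) in √10 steps. After 5 days, nuclei were stained in one fix-and-stain step and counted on 4× images, and relative viability is the nuclei count of treated wells over that of vehicle wells, given as the median of duplicate plates.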
# NCI-H3122 = tested on: NCI-H3122
# Outline: as §1
# NCI-H1755 = tested on: NCI-H1755
# Outline: as §1
# NCI-H1734 = tested on: NCI-H1734
# Outline: as §1
# NCI-H1993 = tested on: NCI-H1993
# Outline: as §1
# NCI-H1944 = tested on: NCI-H1944
# Outline: as §1
# NCI-H1975 = tested on: NCI-H1975
# Outline: as §1
# COR-L23 = tested on: COR-L23
# Outline: as §1
# NCI-H2342 = tested on: NCI-H2342
# Outline: as §1
# HCC-15 = tested on: HCC-15
# Outline: as §1
# NCI-H1650 = tested on: NCI-H1650
# Outline: as §1
# BEN = tested on: BEN
# Outline: as §1
# HCC-827 = tested on: HCC-827
# Outline: as §1
# COR-L 105 = tested on: COR-L 105
# Outline: as §1
# HCC-78 = tested on: HCC-78
# Outline: as §1
# LU99A = tested on: LU99A
# Outline: as §1
# HARA = tested on: HARA
# Outline: as §1
# NCI-H522 = tested on: NCI-H522
# Outline: as §1
# NCI-H596 = tested on: NCI-H596
# Outline: as §1
# 201T = tested on: 201T
# Outline: as §1
# LXF-289 = tested on: LXF-289
# Outline: as §1
# SK-LU-1 = tested on: SK-LU-1
# Outline: as §1
# HCC-366 = tested on: HCC-366
# Outline: as §1
structure (smiles),measurement,setting,value
CCCCCCCCCCCC1=C(O)C(=O)C=C(O)C1=O [Embelin] + Cc1nc(Nc2ncc(C(=O)Nc3c(C)cccc3Cl)s2)cc(N2CCN(CCO)CC2)n1 [Dasatinib] (partner 0.075 µM),relative viability,EKVX; first compound 0.08 µM,0.564
same,relative viability,EKVX; first compound 0.8 µM,0.724
same,relative viability,EKVX; first compound 2.53 µM,0.576
same,relative viability,EKVX; first compound 8 µM,0.555
same,relative viability,NCI-H3122; first compound 0.08 µM,0.823
same,relative viability,NCI-H3122; first compound 0.8 µM,0.922
same,relative viability,NCI-H3122; first compound 2.53 µM,0.853
same,relative viability,NCI-H3122; first compound 8 µM,0.829
same,relative viability,NCI-H1755; first compound 0.08 µM,0.368
same,relative viability,NCI-H1755; first compound 0.8 µM,0.49
same,relative viability,NCI-H1755; first compound 2.53 µM,0.379
same,relative viability,NCI-H1755; first compound 8 µM,0.407
same,relative viability,NCI-H1734; first compound 0.08 µM,0.424
same,relative viability,NCI-H1734; first compound 0.8 µM,0.53
same,relative viability,NCI-H1734; first compound 2.53 µM,0.514
same,relative viability,NCI-H1734; first compound 8 µM,0.419
same,relative viability,NCI-H1993; first compound 0.08 µM,0.641
same,relative viability,NCI-H1993; first compound 0.8 µM,0.602
same,relative viability,NCI-H1993; first compound 2.53 µM,0.535
same,relative viability,NCI-H1993; first compound 8 µM,0.509
same,relative viability,NCI-H1944; first compound 0.08 µM,0.2
same,relative viability,NCI-H1944; first compound 0.8 µM,0.221
same,relative viability,NCI-H1944; first compound 2.53 µM,0.245
same,relative viability,NCI-H1944; first compound 8 µM,0.195
same,relative viability,NCI-H1975; first compound 0.08 µM,0.31
same,relative viability,NCI-H1975; first compound 0.8 µM,0.396
same,relative viability,NCI-H1975; first compound 2.53 µM,0.502
same,relative viability,NCI-H1975; first compound 8 µM,0.333
same,relative viability,COR-L23; first compound 0.08 µM,0.486
same,relative viability,COR-L23; first compound 0.8 µM,0.55
same,relative viability,COR-L23; first compound 2.53 µM,0.458
same,relative viability,COR-L23; first compound 8 µM,0.562
same,relative viability,NCI-H2342; first compound 0.08 µM,0.288
same,relative viability,NCI-H2342; first compound 0.8 µM,0.346
same,relative viability,NCI-H2342; first compound 2.53 µM,0.326
same,relative viability,NCI-H2342; first compound 8 µM,0.342
same,relative viability,HCC-15; first compound 0.08 µM,0.592
same,relative viability,HCC-15; first compound 0.8 µM,0.628
same,relative viability,HCC-15; first compound 2.53 µM,0.711
same,relative viability,HCC-15; first compound 8 µM,0.582
same,relative viability,NCI-H1650; first compound 0.08 µM,0.348
same,relative viability,NCI-H1650; first compound 0.8 µM,0.408
same,relative viability,NCI-H1650; first compound 2.53 µM,0.337
same,relative viability,NCI-H1650; first compound 8 µM,0.315
same,relative viability,BEN; first compound 0.08 µM,0.355
same,relative viability,BEN; first compound 0.8 µM,0.359
same,relative viability,BEN; first compound 2.53 µM,0.259
same,relative viability,BEN; first compound 8 µM,0.362
same,relative viability,HCC-827; first compound 0.08 µM,0.333
same,relative viability,HCC-827; first compound 0.8 µM,0.406
same,relative viability,HCC-827; first compound 2.53 µM,0.404
same,relative viability,HCC-827; first compound 8 µM,0.321
same,relative viability,COR-L 105; first compound 0.08 µM,0.339
same,relative viability,COR-L 105; first compound 0.8 µM,0.544
same,relative viability,COR-L 105; first compound 2.53 µM,0.355
same,relative viability,COR-L 105; first compound 8 µM,0.33
same,relative viability,HCC-78; first compound 0.08 µM,0.373
same,relative viability,HCC-78; first compound 0.8 µM,0.44
same,relative viability,HCC-78; first compound 2.53 µM,0.353
same,relative viability,HCC-78; first compound 8 µM,0.451
same,relative viability,LU99A; first compound 0.08 µM,0.572
same,relative viability,LU99A; first compound 0.8 µM,0.759
same,relative viability,LU99A; first compound 2.53 µM,0.643
same,relative viability,LU99A; first compound 8 µM,0.515
same,relative viability,HARA; first compound 0.08 µM,0.25
same,relative viability,HARA; first compound 0.8 µM,0.329
same,relative viability,HARA; first compound 2.53 µM,0.279
same,relative viability,HARA; first compound 8 µM,0.272
same,relative viability,NCI-H522; first compound 0.08 µM,0.849
same,relative viability,NCI-H522; first compound 0.8 µM,0.914
same,relative viability,NCI-H522; first compound 2.53 µM,1.02
same,relative viability,NCI-H522; first compound 8 µM,0.859
same,relative viability,NCI-H596; first compound 0.08 µM,0.739
same,relative viability,NCI-H596; first compound 0.8 µM,0.739
same,relative viability,NCI-H596; first compound 2.53 µM,0.708
same,relative viability,NCI-H596; first compound 8 µM,0.457
same,relative viability,201T; first compound 0.08 µM,0.562
same,relative viability,201T; first compound 0.8 µM,0.641
same,relative viability,201T; first compound 2.53 µM,0.519
same,relative viability,201T; first compound 8 µM,0.613
same,relative viability,LXF-289; first compound 0.08 µM,0.212
same,relative viability,LXF-289; first compound 0.8 µM,0.282
same,relative viability,LXF-289; first compound 2.53 µM,0.163
same,relative viability,LXF-289; first compound 8 µM,0.222
same,relative viability,SK-LU-1; first compound 0.08 µM,0.192
same,relative viability,SK-LU-1; first compound 0.8 µM,0.191
same,relative viability,SK-LU-1; first compound 2.53 µM,0.199
same,relative viability,SK-LU-1; first compound 8 µM,0.138
same,relative viability,HCC-366; first compound 0.08 µM,0.593
same,relative viability,HCC-366; first compound 0.8 µM,0.688
same,relative viability,HCC-366; first compound 2.53 µM,0.984
same,relative viability,HCC-366; first compound 8 µM,0.557

# — the supplement of paper PMC10307832
